Data reported in paper PMC8232238 (Cells, 2021).

Experiments:
[1] = target: T1, HDAC11 (Homo sapiens, UniProt Q96DB2); experiment: HDAC11 enzyme inhibition assay (single point and 10-dose IC50, Reaction Biology); type: biochemical
T1 construct: purchased Reaction Biology corporation (contract assay)
T1 sequence (Q96DB2 1-347): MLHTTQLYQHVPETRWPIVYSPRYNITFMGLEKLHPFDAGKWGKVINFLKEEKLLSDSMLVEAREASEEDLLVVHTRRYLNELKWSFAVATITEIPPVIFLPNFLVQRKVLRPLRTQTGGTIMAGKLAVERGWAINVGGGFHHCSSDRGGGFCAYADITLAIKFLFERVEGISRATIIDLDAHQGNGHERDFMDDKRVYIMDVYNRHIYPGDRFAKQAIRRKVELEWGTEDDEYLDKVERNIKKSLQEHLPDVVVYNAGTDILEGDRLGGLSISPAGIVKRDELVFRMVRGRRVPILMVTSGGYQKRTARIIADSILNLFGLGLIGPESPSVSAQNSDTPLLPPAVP
Protocol: Against HDAC6, inhibition was determined using 0.01 µM of the inhibitor.
All IC50 measurements we performed by Reaction Biology corporation. Compounds were tested in […]
dilution starting at 1 uM.
Substrate for HDAC11: 50 uM Fluorogenic HDAC Class2a Substrate […]
(Trifluoroacetyl Lysine).
(RHK(Ac)K(Ac)AMC). IC50 values were calculated using the GraphPad Prism 4 program based on a sigmoidal dose-response equation. […]

[2] = target: T2, HDAC1 (Homo sapiens, UniProt Q13547); experiment: HDAC1 enzyme inhibition assay (single point and 10-dose IC50, Reaction Biology); type: biochemical
T2 construct: purchased Reaction Biology corporation (contract assay)
Protocol: (§1) All IC50 measurements we performed by Reaction Biology corporation. Compounds were tested in
(§2) dilution starting at 1 uM. […]
(§3) (RHK(Ac)K(Ac)AMC). IC50 values were calculated using the GraphPad Prism 4 program based on a
(§4) sigmoidal dose-response equation. […]

[3] = system: acetylated histone in A549 cells; experiment: Histone acetylation in A549 cells, immunostaining with high content imaging; type: cell-based, human; settings: 24 h
Protocol: (§5) To confirm the observed activities of the selected test compounds against HDAC6, the acetylation status of tubulin in the human lung cancer cell line A549 was investigated by immunostaining combined with automated high content image analysis (see supplementary material for full details). […] The apparent drop in histone acetylation by both compounds above 10 μM is indicative of a potential cytotoxicity at higher concentrations (data not shown).
(§6) Figure 5 Cell-based assessment of HDAC activity and selectivity. Dose and time-dependency of tubulin and histone acetylation by test compounds. A549 cells were treated with (A,B) different concentrations (0–50 µM) of CF011, KNH019 and tubastatin for 24 h or with (C,D) 1 µM over different time intervals before (A,C) tubulin acetylation or (B,D) histone acetylation were automatically quantified using high content imaging. Data represent the average of four independent experiments with four replicate wells/experiments. The statistical significances of effects compared to the untreated control were analysed using Brown–Forsythe and Welch one-way ANOVA analyses using Graph Pad Prism. The significance was set as * 0.05 > p ≥ 0.01, ** 0.01 > p ≥ 0.002. Error bars represent the Standard Error of Mean (SEM). (E) Representative fluorescence images show tubulin acetylation (yellow), histone acetylation (red) and nuclear counterstain (DAPI, blue) after 24 h of exposure to test compounds. Secondary antibodies were detected using excitation/emission filters for CY3 (excitation: 542/27 nm, emission: 597/45 nm), CY5 (excitation: 632/22 nm, emission: 684/25 nm) and DAPI (excitation: 390/18 nm, emission: 435/48 nm), respectively. […]
(§7) S2.2 Cell Culture, Treatment and Immunostaining:
(§8) A549 cells (ATCC® CCL-185™, In Vitro Technologies Pty. Ltd., Victoria, Australia) were cultured in low glucose Dulbecco’s Modified Eagle Media (DMEM, 1 g/L glucose, 0.584 g/L L-glutamine, 3.7 g/L sodium bicarbonate, 10 % fetal bovine serum) under standard conditions (> 90 % humidity, 37 °C temperature, 5 % CO 2). For experiments, 5,000 cells/ well were seeded in 100 µl serum free DMEM in 384 well plates (µCLEAR®, Greiner) and left to adhere for 24 hours before the treatment. Cells were treated with 100 µl of test compound -containing media for up to 24 hours before cells were fixed with 4 % paraformaldehyde (PFA) solution in PBS (10 minutes at room temperature (RT)) and permeabi lized with 50 µl of 0.5 % Triton X -100 in PBS. Subsequently, cells were blocked in PBST (5% fetal bovine serum, 5% bovine serum albumin, 5% goat serum, 0.1% Tween 20 in PBS) before stained with anti - acetylated tubulin (T7451, Sigma Aldrich; 1:1,000) and an ti-acetylated histone antibody (ab47915, Abcam; 1:1,000) overnight at 4 °C. Subsequently, cells were exposed to secondary antibodies (goat anti-mouse Alexa fluor 594 (Invitrogen; 1:10,000) and goat anti -rabbit Alexa fluor 647 (Invitrogen; 1:10,000) in PBST ) and DAPI solution (Invitrogen; 1:10,000 in PBST) before images were acquired.
(§9) Fluorescence images were acquired (10x magnification, 2 -D format) using the InCell 2200 high content imaging system (V7.3, GE Healthcare life sciences) wi th CY3 (excitation: 542/27 nm, emission: 597/45 nm), CY5 (excitation: 632/22 nm, emission: 684/25 nm) and DAPI (excitation: 390/18 nm, emission:
435/48 nm) filters. […] Data was expressed as % Relative Fluorescence Units (RFU) […]

[4] = system: acetylated tubulin in A549 cells; experiment: Tubulin acetylation in A549 cells, immunostaining with high content imaging; type: cell-based, human; settings: 24 h
Protocol: as §5, §6, §7, §8, §9
435/48 nm) filters. Two images/well at predefined positions were automatically acquired with 4 replicate wells for each treatment condition/ experiment. At least 3 independent experiments were conducted for each condition. Acquired images were automatically processed using InCarta software (v1.6, GE Healthcare life sciences). All images were manually checked for ar tefacts. Images with less than 30 cells were excluded from the analysis. Excel and GraphPad Prism was used for statistical analysis and graphical representation. Data was expressed as % Relative Fluorescence Units (RFU) […]

[5] = target: T3, HDAC3 (Homo sapiens, UniProt O15379); experiment: HDAC3 enzyme inhibition assay (single point and 10-dose IC50, Reaction Biology); type: biochemical
T3 construct: purchased Reaction Biology corporation (contract assay)
Protocol: as §1, §2, §3, §4

[6] = average of two independent measurements
[7] = single point, inhibitor 1.0 μM, average of two measurements, ±2%

T2 sequence (Q13547 whole entry): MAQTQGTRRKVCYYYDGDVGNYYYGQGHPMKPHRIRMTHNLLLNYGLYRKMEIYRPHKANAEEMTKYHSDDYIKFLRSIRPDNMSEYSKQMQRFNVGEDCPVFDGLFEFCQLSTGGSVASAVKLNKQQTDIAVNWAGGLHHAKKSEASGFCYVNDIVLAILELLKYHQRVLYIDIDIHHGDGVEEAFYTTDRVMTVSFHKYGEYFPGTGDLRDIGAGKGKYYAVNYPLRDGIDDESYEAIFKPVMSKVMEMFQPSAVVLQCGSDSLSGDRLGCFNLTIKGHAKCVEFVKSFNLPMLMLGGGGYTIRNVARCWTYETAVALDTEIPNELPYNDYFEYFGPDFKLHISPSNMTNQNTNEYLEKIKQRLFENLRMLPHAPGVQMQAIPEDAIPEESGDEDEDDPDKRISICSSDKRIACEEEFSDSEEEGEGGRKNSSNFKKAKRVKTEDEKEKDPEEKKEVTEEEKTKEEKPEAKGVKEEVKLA
T3 sequence (O15379 whole entry): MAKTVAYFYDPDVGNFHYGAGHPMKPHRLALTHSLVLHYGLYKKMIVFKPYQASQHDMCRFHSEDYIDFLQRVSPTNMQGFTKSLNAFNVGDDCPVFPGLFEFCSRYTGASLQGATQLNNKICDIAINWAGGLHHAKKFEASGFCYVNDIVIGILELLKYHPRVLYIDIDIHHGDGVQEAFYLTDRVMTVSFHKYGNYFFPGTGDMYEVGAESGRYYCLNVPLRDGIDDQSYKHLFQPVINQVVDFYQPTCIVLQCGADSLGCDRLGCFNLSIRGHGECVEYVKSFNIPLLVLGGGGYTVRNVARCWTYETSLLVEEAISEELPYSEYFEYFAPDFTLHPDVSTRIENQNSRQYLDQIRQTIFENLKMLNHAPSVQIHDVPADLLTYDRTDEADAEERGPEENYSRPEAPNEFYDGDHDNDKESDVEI
T3 sequence (Q9Y618 395-489 partner limits assumed): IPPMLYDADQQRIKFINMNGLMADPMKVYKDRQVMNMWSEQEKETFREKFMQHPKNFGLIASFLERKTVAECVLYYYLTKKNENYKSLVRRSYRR

## O=C(CCCCCN1C(=O)c2cccc3cc(NC(=O)c4ccccc4)cc(c23)C1=O)NO [KNH019]
[1]; [6]
  IC50: 0.29 ± 0.035 µM
[1]; selectivity for HDAC6 over HDAC11
  Selectivity factor (SF) HDAC11 against HDAC6: 290
[1]; [7]
  HDAC11 average enzyme isoform activity (percentage of full enzyme activity): 67.5%
[2]; [6]
  IC50: 0.091 ± 0.006 µM
[2]; selectivity for HDAC6 over HDAC1
  Selectivity factor (SF) = HDAC1 IC50/HDAC6 IC50: 91
[2]; [7]
  HDAC1 average enzyme isoform activity (percentage of full enzyme activity): 36.3%
[3]; 10 µM
  Histone acetylation in representative immunostaining images: strongly induce
[3]; compared to untreated cells
  Concentration from which histone acetylation was significantly increased: 10^−2 mM
[4]; 0-50 µM, dose-dependent
  Increase of tubulin acetylation compared to untreated cells (up to): ~1.5 fold
[4]; 10 µM
  Tubulin acetylation in representative immunostaining images: strongly induce
[4]; compared to untreated cells
  Concentration from which tubulin acetylation was significantly increased: 10^−6 mM
[5]; [6]
  IC50: 0.064 ± 0.0002 µM
[5]; selectivity for HDAC6 over HDAC3
  Selectivity factor (SF) HDAC3 against HDAC6: 64
[5]; [7]
  HDAC3 average enzyme isoform activity (percentage of full enzyme activity): 24.1%
